{
  "source": "patent US20220160703A1",
  "about": "“TUMOR-SELECTIVE COMBINATION THERAPY” (The Board of Regents of The University of Texas System, priority 2019, published 2022)",
  "key": {"[1]": {"test_system": "NQO1 negative cell lines Panc02 and B16", "test": "Cell viability/survival of NQO1 negative murine tumor lines (SRB)", "format": "cell-based", "conditions": "β-lap 0-8 μM, SRB 4 days later", "protocol": "(FIG. 1A) NQO1 positive tumor cell lines MC38, TC-1 and Ag104Ld and NQO1 negative cell lines Panc02 and B16 grown in 48-well plates were treated with β-lap (0-8 μM) for a 3 hr followed by washing and replacing medium. Cell viability was determined by Sulforhodamine B (SRB) Assay 4 days later. […] (FIG. 1C) MC38 cells with CRISPR-based NQO1 Knockout (MC38 NQO1KO #5) planted in 96-well plates were exposed to β-lap for 3 hr and cell survival was assessed 48 hr later. […] (FIG. 1E) MC38 cells were exposed to a lethal dose of β-lap (4 μM) for indicated times, then stained with 7-AAD and Annexin V followed by flow cytometry analysis. […] (FIG. 1H) MC38 and B16 NQO1 #1 cells were exposed to β-lap for a 3 hr. Catalase (1000 U/ml) was added and cell survival was assessed 48 hr later. […] Tumor growth was monitored twice a week.\n(FIG. 8A) NQO1 expression in multiple murine tumor lines was immunoblotted as indicated. […] Drugs were removed and survival assessed 5 days later. (FIG. 8C) Relative H2O2 levels were assessed in various cells treated with β-lap for 3 h at the indicated doses using CellRox-Glo. […] (FIG. 8D) TC-1 cells exposure to β-lap for 12 h, later PARP-1 and Caspase-3 levels were analyzed by western blotting assay. […]\n(FIGS. 14A-C) NQO1 cells MC38 (A) and TC-1 (B) and NQO1^− cells B16 (C) were treated for 2 h with various doses of IB-DNQ±DIC (50 μM). Drugs were removed and survival assessed 6 days later. […]"}, "ROS": {"test_system": "ROS", "test": "Cellular ROS / H2O2 detection", "format": "cell-based, murine", "conditions": "for ROS level: 3 hr, DCFDA", "protocol": "(FIG. 1A) NQO1 positive tumor cell lines MC38, TC-1 and Ag104Ld and NQO1 negative cell lines Panc02 and B16 grown in 48-well plates were treated with β-lap (0-8 μM) for a 3 hr followed by washing and replacing medium. Cell viability was determined by Sulforhodamine B (SRB) Assay 4 days later. […] (FIG. 1C) MC38 cells with CRISPR-based NQO1 Knockout (MC38 NQO1KO #5) planted in 96-well plates were exposed to β-lap for 3 hr and cell survival was assessed 48 hr later. […] (FIG. 1E) MC38 cells were exposed to a lethal dose of β-lap (4 μM) for indicated times, then stained with 7-AAD and Annexin V followed by flow cytometry analysis. […] (FIG. 1H) MC38 and B16 NQO1 #1 cells were exposed to β-lap for a 3 hr. Catalase (1000 U/ml) was added and cell survival was assessed 48 hr later. (FIG. 1I) C57BL/6 mice (n=5/group) were transplanted with MC38 cells and treated with β-lap (0.03 mg, 0.1 mg or 0.3 mg, intratumorally; or 25 mg/kg, i.v.) every other day for four times. (FIG. 1J) C57BL/6 mice were transplanted with MC38 cells (NQO1 WT or KO, n=5/group) and treated with β-lap (0.3 mg, i.t.) every other day for four times. Tumor growth was monitored twice a week.\n(FIG. 8A) NQO1 expression in multiple murine tumor lines was immunoblotted as indicated. (FIG. 8B) NQO1^+ cells (MC38, TC-1, and Ag104Ld) and NQO1^− cells (B16 and Pan02) were treated for 3 h with β-lap±DIC (50 μM). Drugs were removed and survival assessed 5 days later. (FIG. 8C) Relative H2O2 levels were assessed in various cells treated with β-lap for 3 h at the indicated doses using CellRox-Glo. Values were normalized to DMSO-treated control cells. (FIG. 8D) TC-1 cells exposure to β-lap for 12 h, later PARP-1 and Caspase-3 levels were analyzed by western blotting assay. […]\n(FIG. 21A) Viability of murine cell lines following IB-DNQ treatment for 4 h. […] (FIGS. 21D-E) DNA double strand break was assessed via comet assay (FIG. 21D) and γH2AX foci/nuclei immunofluorescence (FIG. 21E). (FIG. 21F) MC38 cell death after a 4 h exposure to IB-DNQ was determined by 7AAD and Annexin V staining using flow cytometry analysis."}, "A549 tumor": {"test_system": "A549 tumor", "test": "A549 xenograft in NSG-SGM3 humanized mouse model", "format": "in vivo, mice", "conditions": "Hu-NSG-SGM3 versus NSG-SGM3, β-lap 0.2 mg i.t. four times", "protocol": "FIGS. 2A-F. β-Lap's antitumor effect is CD8^+ T cell dependent. (FIG. 2A) MC38 cells were subcutaneously transplanted into C57BL/6 WT (n=5-6/group) and Rag1 KO mice (n=5/group), respectively. Tumor bearing mice were treated with β-lap (0.3 mg, i.t.) every other day for four times. Numbers of tumor free mice after treatment were shown. (FIG. 2B) MC38 tumor bearing C57BL/6 mice (n=5/group) were treated with β-lap (0.3 mg, i.t.) every other day for four times. For CD8^+ T cell depletion, 200 μg of anti-CD8 antibodies were intraperitoneally injected four times at three days interval during the treatment. […] (FIG. 2D) Naïve (n=5/group) and β-lap cured MC38 tumor free (n=7/group) C57BL/6 mice were rechallenged subcutaneously with 3×10^6 MC38 cells on the opposite site from the primary tumor 30 days after complete rejection, and tumor growth curve was monitored. […] Tumor growth was measured twice a week. Data are shown as mean±SEM from three independent experiments. **P<0.01, ***P<0.001, ****P<0.0001 determined by two-way ANOVA.\nFor NSG-SGM3 humanized mouse model, four-week-old NSG-SGM3 female mice were irradiated with 100 cGy (X-ray irradiation with X-RAD 320 irradiator) one day prior to human CD34+ cells transfer. […] Tumor volumes were measured at least twice weekly. […]"}},
  "data": [
    {"compound": "CC1(C)CCC2=C(O1)c1ccccc1C(=O)C2=O", "note": "[β-lap, β-lapachone]", "values": [
      {"measurement": "response to 3 h β-lap exposure (cell viability)", "setting": "[1]", "value": "resistant"},
      {"measurement": "H2O2 level", "setting": "ROS; NQO1+ cells but not NQO1− cells, 3 h exposure, CellRox-Glo", "value": "High level of H2O2"},
      {"measurement": "ROS level", "setting": "ROS; NQO1 null lines", "value": "much less"},
      {"measurement": "ROS level", "setting": "ROS; NQO1 positive murine tumor line", "value": "high level of ROS"},
      {"measurement": "tumor control in presence of human immune system", "setting": "A549 tumor", "value": "much better tumor control"}
    ]}
  ]
}
